What all share (assay): relative viability (nuclei count vs DMSO), 5 days (fraction); higher = more cells survive
Compound in assay [1]: C1=CC(=CC=C1NC(=S)NNC2=C(C=C(C=C2[N+](=O)[O-])C(F)(F)F)[N+](=O)[O-])F [Kobe2602] + CC1(C)CCC(c2ccc(Cl)cc2)=C(CN2CCN(c3ccc(C(=O)NS(=O)(=O)c4ccc(N[C@H](CCN5CCOCC5)CSc5ccccc5)c(S(=O)(=O)C(F)(F)F)c4)cc3)CC2)C1 [Navitoclax] (partner 0.5 µM)
An outline of the steps:
(§1)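 Relative viability divides the nuclei count in treated wells by that in vehicle wells. Lung cancer cell lines were seeded in 1536-well plates, dosed by pin tool the next day, and fixed and stained after 5 days in one step with final 0.05% Triton X-100, 1% formaldehyde and 1 ug/ml Hoechst. Dosing was a single drug or a fixed anchor-drug dose plus five library-drug doses (not always all listed) in √10 steps, and values are medians of duplicate plates imaged at 4×.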

Compound in assay [2]: C1=CC(=CC=C1NC(=S)NNC2=C(C=C(C=C2[N+](=O)[O-])C(F)(F)F)[N+](=O)[O-])F [Kobe2602] + Cc1cc(Nc2cc(N3CCN(C)CC3)nc(Sc3ccc(NC(=O)C4CC4)cc3)n2)n[nH]1 [Tozasertib] (partner 0.1 µM)
A digest of the protocol:
as §1

Compound in assay [3]: C1=CC(=CC=C1NC(=S)NNC2=C(C=C(C=C2[N+](=O)[O-])C(F)(F)F)[N+](=O)[O-])F [Kobe2602] + N=C(N)NC(=N)NCCc1ccccc1 [Phenformin] (partner 250 µM)
An outline of the steps:
as §1

Compound in assay [4]: COc1cc2nccc(Oc3ccc(NC(=O)C4(C(=O)Nc5ccc(F)cc5)CC4)cc3)c2cc1OC [Cabozantinib] + CS(=O)(=O)N1CCN(Cc2cc3nc(-c4cccc5[nH]ncc45)nc(N4CCOCC4)c3s2)CC1 [Pictilisib] (partner 1 µM)
A digest of the protocol: as §1

For one cell line, relative viability results are on record in the supplement of paper PMC10307832.

Turning to UMC-11, the relative viability in assay [1] (first compound 0.2 µM) is 0.322; in assay [1] (first compound 0.6325 µM), 0.327; in assay [1] (first compound 2 µM), 0.292; in assay [1] (first compound 6.325 µM), 0.312; in assay [1] (first compound 20 µM) it was 0.316; in assay [2] (first compound 0.2 µM) it was 0.215. Further, the relative viability in assay [2] (first compound 0.6325 µM) was found to be 0.219; in assay [2] (first compound 2 µM) it was 0.189; in assay [2] (first compound 6.325 µM) it was 0.197; in assay [2] (first compound 20 µM), 0.211; in assay [3] (first compound 0.2 µM), 0.358; in assay [3] (first compound 0.6325 µM) it was 0.336. Also, the relative viability in assay [3] (first compound 2 µM) was 0.334; in assay [3] (first compound 6.325 µM) it was 0.335; in assay [3] (first compound 20 µM), 0.306; in assay [4] (first compound 0.02 µM) it was 0.804; in assay [4] (first compound 0.06325 µM), 0.96; in assay [4] (first compound 0.2 µM), 0.8. Moreover, the relative viability in assay [4] (first compound 0.6325 µM) turned out to be 0.782; in assay [4] (first compound 2 µM), 0.76.
